Laboratory results as given in patent US8076487B2, “Pyridone derivative and herbicide” (Kumiai Chemical Industry Co., Ltd., priority 2006, dated 2011).

Assays:
Assay type in all cases: in vivo
[1] = test system: early watergrass (Echinochloa oryzicola Vasing); test: Test Example 1: herbicidal effect by soil application to paddy field; conditions: paddy field soil application; active ingredient 1,000 g per 1 hectare; wettable powder added dropwise to water surface the day after sowing; examined on the 21st day after application
How it was run: (§1)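 Plants were sown in flooded (3 cm) paddy soil and evaluated for herbicidal effect 21 days after soil application in a greenhouse.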

[2] = test system: Japanese bulrush (Scirpus juncoides Roxb.); test: as above; conditions: paddy field soil application; active ingredient 1,000 g per 1 hectare; wettable powder added dropwise to water surface the day after sowing; examined on the 21st day after application
How it was run: as §1

[3] = test system: heartshape false pickerelweed (Monochoria vaginalis (Burm.f.) C.Presl); test: as above; conditions: paddy field soil application; active ingredient 1,000 g per 1 hectare; wettable powder added dropwise to water surface the day after sowing; examined on the 21st day after application
How it was run: as §1

[4] = test system: green foxtail (Setaria viridis (L.) P. Beauv.); test: Test Example 2: herbicidal effect by soil application to upland field; conditions: soil surface spray, upland field soil, 1,000 g active ingredient per hectare, 21st day after application
How it was run: (§2)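 Greenhouse pot assay with field soil. Freshly sown seeds were covered with soil, then the surface was sprayed with diluted wettable powder: 1,000 g a.i./ha, 1,000 L/ha. Herbicidal effect scored at day 21 by standard criteria.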

[5] = test system: velvetleaf (Abutilon theophrasti medicus); test: as above; conditions: soil surface spray, upland field soil, 1,000 g active ingredient per hectare, 21st day after application
How it was run: as §2

[6] = test system: barnyardgrass (Echinochloa crus-galli (L.) P. Beauv. var. crus-galli); test: as above; conditions: soil surface spray, upland field soil, 1,000 g active ingredient per hectare, 21st day after application
How it was run: as §2

[7] = test system: slender amaranth (Amaranthus viridis L.); test: as above; conditions: soil surface spray, upland field soil, 1,000 g active ingredient per hectare, 21st day after application
How it was run: as §2

[8] = test system: green foxtail (Setaria viridis (L.) P. Beauv.); test: Test Example 3: herbicidal effect by application to upland field (foliage treatment); conditions: foliage treatment, 1,000 g active ingredient per 1 hectare, 14th day after application, greenhouse
How it was run: (§3)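 Sow in field soil; grow 2 weeks in greenhouse; spray foliage from above with wettable-powder dilution (1,000 g AI/ha, 1,000 L/ha); return to greenhouse; score effect at day 14 against a standard.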

[9] = test system: velvetleaf (Abutilon theophrasti medicus); test: as above; conditions: foliage treatment, 1,000 g active ingredient per 1 hectare, 14th day after application, greenhouse
How it was run: as §3

[10] = test system: barnyardgrass (Echinochloa crus-galli (L.) P. Beauv. var. crus-galli); test: as above; conditions: foliage treatment, 1,000 g active ingredient per 1 hectare, 14th day after application, greenhouse
How it was run: as §3

[11] = test system: slender amaranth (Amaranthus viridis L.); test: as above; conditions: foliage treatment, 1,000 g active ingredient per 1 hectare, 14th day after application, greenhouse
How it was run: as §3

COC(C)Cn1c(C(F)(F)F)ccc(C(=O)C2=C(O)C3CCC(C3)C2=O)c1=O (stereo not shown) [III-24]
herbicidal effect, Echinochloa oryzicola Vasing [1]: 5 (90% or more of herbicidal effect and crop phytotoxicity) | herbicidal effect, Scirpus juncoides Roxb. [2]: 5 (90% or more of herbicidal effect and crop phytotoxicity) | herbicidal effect, Monochoria vaginalis (Burm. f.) C. Presl [3]: 5 (90% or more of herbicidal effect and crop phytotoxicity) | herbicidal effect (index), Green Foxtail [4]: 5 (90% or more of herbicidal effect and crop phytotoxicity) | herbicidal effect (index), Velvetleaf [5]: 5 (90% or more of herbicidal effect and crop phytotoxicity) | herbicidal effect (index), Barnyardgrass [6]: 5 (90% or more of herbicidal effect and crop phytotoxicity) | herbicidal effect (index), Slender Amaranth [7]: 5 (90% or more of herbicidal effect and crop phytotoxicity) | herbicidal effect, Green Foxtail [8]: 5 (90% or more of herbicidal effect and crop phytotoxicity) | herbicidal effect, Velvetleaf [9]: 5 (90% or more of herbicidal effect and crop phytotoxicity) | herbicidal effect, Barnyardgrass [10]: 5 (90% or more of herbicidal effect and crop phytotoxicity) | herbicidal effect, Slender Amaranth [11]: 5 (90% or more of herbicidal effect and crop phytotoxicity)

COC(Cn1c(C(F)(F)F)ccc(C(=O)C2=C(O)C3CCC(C3)C2=O)c1=O)OC (stereo not shown) [III-25]
herbicidal effect, Echinochloa oryzicola Vasing [1]: 5 (90% or more of herbicidal effect and crop phytotoxicity) | herbicidal effect, Scirpus juncoides Roxb. [2]: 5 (90% or more of herbicidal effect and crop phytotoxicity) | herbicidal effect, Monochoria vaginalis (Burm. f.) C. Presl [3]: 5 (90% or more of herbicidal effect and crop phytotoxicity) | herbicidal effect (index), Green Foxtail [4]: 5 (90% or more of herbicidal effect and crop phytotoxicity) | herbicidal effect (index), Velvetleaf [5]: 5 (90% or more of herbicidal effect and crop phytotoxicity) | herbicidal effect (index), Barnyardgrass [6]: 5 (90% or more of herbicidal effect and crop phytotoxicity) | herbicidal effect (index), Slender Amaranth [7]: 5 (90% or more of herbicidal effect and crop phytotoxicity) | herbicidal effect, Green Foxtail [8]: 5 (90% or more of herbicidal effect and crop phytotoxicity) | herbicidal effect, Velvetleaf [9]: 5 (90% or more of herbicidal effect and crop phytotoxicity) | herbicidal effect, Barnyardgrass [10]: 5 (90% or more of herbicidal effect and crop phytotoxicity) | herbicidal effect, Slender Amaranth [11]: 5 (90% or more of herbicidal effect and crop phytotoxicity)

CSCCn1c(C(F)(F)F)ccc(C(=O)C2=C(O)C3CCC(C3)C2=O)c1=O (stereo not shown) [III-28]
herbicidal effect, Echinochloa oryzicola Vasing [1]: 5 (90% or more of herbicidal effect and crop phytotoxicity) | herbicidal effect, Scirpus juncoides Roxb. [2]: 5 (90% or more of herbicidal effect and crop phytotoxicity) | herbicidal effect, Monochoria vaginalis (Burm. f.) C. Presl [3]: 5 (90% or more of herbicidal effect and crop phytotoxicity) | herbicidal effect (index), Green Foxtail [4]: 5 (90% or more of herbicidal effect and crop phytotoxicity) | herbicidal effect (index), Velvetleaf [5]: 5 (90% or more of herbicidal effect and crop phytotoxicity) | herbicidal effect (index), Barnyardgrass [6]: 5 (90% or more of herbicidal effect and crop phytotoxicity) | herbicidal effect (index), Slender Amaranth [7]: 5 (90% or more of herbicidal effect and crop phytotoxicity) | herbicidal effect, Green Foxtail [8]: 5 (90% or more of herbicidal effect and crop phytotoxicity) | herbicidal effect, Velvetleaf [9]: 5 (90% or more of herbicidal effect and crop phytotoxicity) | herbicidal effect, Barnyardgrass [10]: 5 (90% or more of herbicidal effect and crop phytotoxicity) | herbicidal effect, Slender Amaranth [11]: 5 (90% or more of herbicidal effect and crop phytotoxicity)

C[S+]([O-])CCn1c(C(F)(F)F)ccc(C(=O)C2=C(O)C3CCC(C3)C2=O)c1=O (stereo not shown) [III-29]
herbicidal effect, Echinochloa oryzicola Vasing [1]: 5 (90% or more of herbicidal effect and crop phytotoxicity) | herbicidal effect, Scirpus juncoides Roxb. [2]: 5 (90% or more of herbicidal effect and crop phytotoxicity) | herbicidal effect, Monochoria vaginalis (Burm. f.) C. Presl [3]: 5 (90% or more of herbicidal effect and crop phytotoxicity) | herbicidal effect (index), Green Foxtail [4]: 5 (90% or more of herbicidal effect and crop phytotoxicity) | herbicidal effect (index), Velvetleaf [5]: 5 (90% or more of herbicidal effect and crop phytotoxicity) | herbicidal effect (index), Barnyardgrass [6]: 5 (90% or more of herbicidal effect and crop phytotoxicity) | herbicidal effect (index), Slender Amaranth [7]: 5 (90% or more of herbicidal effect and crop phytotoxicity) | herbicidal effect, Green Foxtail [8]: 5 (90% or more of herbicidal effect and crop phytotoxicity) | herbicidal effect, Velvetleaf [9]: 5 (90% or more of herbicidal effect and crop phytotoxicity) | herbicidal effect, Barnyardgrass [10]: 5 (90% or more of herbicidal effect and crop phytotoxicity) | herbicidal effect, Slender Amaranth [11]: 5 (90% or more of herbicidal effect and crop phytotoxicity)

C[S+]([O-])CCCn1c(C(F)(F)F)ccc(C(=O)C2=C(O)C3CCC(C3)C2=O)c1=O (stereo not shown) [III-32]
herbicidal effect, Echinochloa oryzicola Vasing [1]: 5 (90% or more of herbicidal effect and crop phytotoxicity) | herbicidal effect, Scirpus juncoides Roxb. [2]: 5 (90% or more of herbicidal effect and crop phytotoxicity) | herbicidal effect, Monochoria vaginalis (Burm. f.) C. Presl [3]: 5 (90% or more of herbicidal effect and crop phytotoxicity) | herbicidal effect (index), Green Foxtail [4]: 5 (90% or more of herbicidal effect and crop phytotoxicity) | herbicidal effect (index), Velvetleaf [5]: 5 (90% or more of herbicidal effect and crop phytotoxicity) | herbicidal effect (index), Barnyardgrass [6]: 5 (90% or more of herbicidal effect and crop phytotoxicity) | herbicidal effect (index), Slender Amaranth [7]: 5 (90% or more of herbicidal effect and crop phytotoxicity) | herbicidal effect, Green Foxtail [8]: 5 (90% or more of herbicidal effect and crop phytotoxicity) | herbicidal effect, Velvetleaf [9]: 5 (90% or more of herbicidal effect and crop phytotoxicity) | herbicidal effect, Barnyardgrass [10]: 5 (90% or more of herbicidal effect and crop phytotoxicity) | herbicidal effect, Slender Amaranth [11]: 5 (90% or more of herbicidal effect and crop phytotoxicity)

CS(=O)(=O)CCCn1c(C(F)(F)F)ccc(C(=O)C2=C(O)C3CCC(C3)C2=O)c1=O (stereo not shown) [III-33]
herbicidal effect, Echinochloa oryzicola Vasing [1]: 5 (90% or more of herbicidal effect and crop phytotoxicity) | herbicidal effect, Scirpus juncoides Roxb. [2]: 5 (90% or more of herbicidal effect and crop phytotoxicity) | herbicidal effect, Monochoria vaginalis (Burm. f.) C. Presl [3]: 5 (90% or more of herbicidal effect and crop phytotoxicity) | herbicidal effect (index), Green Foxtail [4]: 5 (90% or more of herbicidal effect and crop phytotoxicity) | herbicidal effect (index), Velvetleaf [5]: 5 (90% or more of herbicidal effect and crop phytotoxicity) | herbicidal effect (index), Barnyardgrass [6]: 4 (70 to less than 90% of herbicidal effect and crop phytotoxicity) | herbicidal effect (index), Slender Amaranth [7]: 5 (90% or more of herbicidal effect and crop phytotoxicity) | herbicidal effect, Green Foxtail [8]: 5 (90% or more of herbicidal effect and crop phytotoxicity) | herbicidal effect, Velvetleaf [9]: 5 (90% or more of herbicidal effect and crop phytotoxicity) | herbicidal effect, Barnyardgrass [10]: 5 (90% or more of herbicidal effect and crop phytotoxicity) | herbicidal effect, Slender Amaranth [11]: 5 (90% or more of herbicidal effect and crop phytotoxicity)

O=C(C1=C(O)C2CCC(C2)C1=O)c1ccc(C(F)(F)F)n(-c2ccccc2)c1=O (stereo not shown) [III-34]
herbicidal effect, Echinochloa oryzicola Vasing [1]: 5 (90% or more of herbicidal effect and crop phytotoxicity) | herbicidal effect, Scirpus juncoides Roxb. [2]: 5 (90% or more of herbicidal effect and crop phytotoxicity) | herbicidal effect, Monochoria vaginalis (Burm. f.) C. Presl [3]: 5 (90% or more of herbicidal effect and crop phytotoxicity) | herbicidal effect (index), Green Foxtail [4]: 5 (90% or more of herbicidal effect and crop phytotoxicity) | herbicidal effect (index), Velvetleaf [5]: 5 (90% or more of herbicidal effect and crop phytotoxicity) | herbicidal effect (index), Barnyardgrass [6]: 5 (90% or more of herbicidal effect and crop phytotoxicity) | herbicidal effect (index), Slender Amaranth [7]: 5 (90% or more of herbicidal effect and crop phytotoxicity) | herbicidal effect, Green Foxtail [8]: 5 (90% or more of herbicidal effect and crop phytotoxicity) | herbicidal effect, Velvetleaf [9]: 5 (90% or more of herbicidal effect and crop phytotoxicity) | herbicidal effect, Barnyardgrass [10]: 5 (90% or more of herbicidal effect and crop phytotoxicity) | herbicidal effect, Slender Amaranth [11]: 5 (90% or more of herbicidal effect and crop phytotoxicity)

Cc1ccc(-n2c(C(F)(F)F)ccc(C(=O)C3=C(O)C4CCC(C4)C3=O)c2=O)cc1 (stereo not shown) [III-35]
herbicidal effect, Echinochloa oryzicola Vasing [1]: 5 (90% or more of herbicidal effect and crop phytotoxicity) | herbicidal effect, Scirpus juncoides Roxb. [2]: 5 (90% or more of herbicidal effect and crop phytotoxicity) | herbicidal effect, Monochoria vaginalis (Burm. f.) C. Presl [3]: 5 (90% or more of herbicidal effect and crop phytotoxicity) | herbicidal effect (index), Green Foxtail [4]: 5 (90% or more of herbicidal effect and crop phytotoxicity) | herbicidal effect (index), Velvetleaf [5]: 5 (90% or more of herbicidal effect and crop phytotoxicity) | herbicidal effect (index), Barnyardgrass [6]: 5 (90% or more of herbicidal effect and crop phytotoxicity) | herbicidal effect (index), Slender Amaranth [7]: 5 (90% or more of herbicidal effect and crop phytotoxicity) | herbicidal effect, Green Foxtail [8]: 5 (90% or more of herbicidal effect and crop phytotoxicity) | herbicidal effect, Velvetleaf [9]: 5 (90% or more of herbicidal effect and crop phytotoxicity) | herbicidal effect, Barnyardgrass [10]: 5 (90% or more of herbicidal effect and crop phytotoxicity) | herbicidal effect, Slender Amaranth [11]: 5 (90% or more of herbicidal effect and crop phytotoxicity)
